# Laboratory results from patent publication EP4741386A1 (Jiangsu Yahong Meditech Co., Ltd., priority 2023, dated 2025).
# Molecular target: T1, Recombinant human His6-USP1/His6-UAF1 complex protein (Homo sapiens, UniProt O94782)
# T1 construct: His6; purchased R&D E-568-050
# Assay: In vitro inhibitory activity against USP1 (Ubiquitin Rhodamine 110 fluorescence detection, 384-well plate)
# Assay type: biochemical
# Conditions: Ub-Rho substrate, 1 hour pre-incubation, read after 30 minutes
# Procedure: Test Example 1: In vitro inhibitory activity against USP1 […]
# Experimental object: to screen compounds with inhibitory activity against USP1 […] by a fluorescence detection method, using a 384-well plate.
# Experimental materials: Recombinant human His6-USP1/His6-UAF1 complex protein (R&D, Cat. No.: E-568-050), Ubiquitin Rhodamine 110 protein (Ub-Rho) (R&D, Cat. No.: U-555-050), 384-well plate (Perkin Elmer, Cat. No.: 6007279); all compounds were dissolved in 100% DMSO to obtain 50 mM stock solutions.
# • 1) Preparation of 1 × assay buffer: 1 × assay buffer (modified Tris buffer) was prepared; • 2) Dilution of compounds: the compounds were transferred to an assay plate via Echo.
# T1 sequence (O94782 whole entry): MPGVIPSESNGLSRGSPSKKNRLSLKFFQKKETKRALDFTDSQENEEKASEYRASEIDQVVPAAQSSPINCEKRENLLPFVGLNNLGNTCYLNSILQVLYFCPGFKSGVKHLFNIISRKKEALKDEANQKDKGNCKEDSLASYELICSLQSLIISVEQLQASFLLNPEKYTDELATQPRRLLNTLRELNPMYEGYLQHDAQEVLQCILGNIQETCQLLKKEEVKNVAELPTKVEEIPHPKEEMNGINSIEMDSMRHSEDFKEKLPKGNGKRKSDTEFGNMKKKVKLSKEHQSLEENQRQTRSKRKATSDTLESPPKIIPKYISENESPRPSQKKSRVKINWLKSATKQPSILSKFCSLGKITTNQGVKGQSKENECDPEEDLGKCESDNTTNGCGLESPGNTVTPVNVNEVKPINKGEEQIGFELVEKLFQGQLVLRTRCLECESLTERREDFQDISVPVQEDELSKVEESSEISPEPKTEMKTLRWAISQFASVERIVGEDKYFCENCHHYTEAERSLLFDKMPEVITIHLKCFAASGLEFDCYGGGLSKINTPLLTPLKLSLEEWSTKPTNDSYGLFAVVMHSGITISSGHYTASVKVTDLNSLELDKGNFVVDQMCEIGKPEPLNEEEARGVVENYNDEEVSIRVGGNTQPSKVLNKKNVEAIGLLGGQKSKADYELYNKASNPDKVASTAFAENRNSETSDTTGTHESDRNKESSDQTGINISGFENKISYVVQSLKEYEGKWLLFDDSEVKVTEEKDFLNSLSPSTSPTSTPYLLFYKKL
# T1 sequence (Q8TAF3 whole entry partner): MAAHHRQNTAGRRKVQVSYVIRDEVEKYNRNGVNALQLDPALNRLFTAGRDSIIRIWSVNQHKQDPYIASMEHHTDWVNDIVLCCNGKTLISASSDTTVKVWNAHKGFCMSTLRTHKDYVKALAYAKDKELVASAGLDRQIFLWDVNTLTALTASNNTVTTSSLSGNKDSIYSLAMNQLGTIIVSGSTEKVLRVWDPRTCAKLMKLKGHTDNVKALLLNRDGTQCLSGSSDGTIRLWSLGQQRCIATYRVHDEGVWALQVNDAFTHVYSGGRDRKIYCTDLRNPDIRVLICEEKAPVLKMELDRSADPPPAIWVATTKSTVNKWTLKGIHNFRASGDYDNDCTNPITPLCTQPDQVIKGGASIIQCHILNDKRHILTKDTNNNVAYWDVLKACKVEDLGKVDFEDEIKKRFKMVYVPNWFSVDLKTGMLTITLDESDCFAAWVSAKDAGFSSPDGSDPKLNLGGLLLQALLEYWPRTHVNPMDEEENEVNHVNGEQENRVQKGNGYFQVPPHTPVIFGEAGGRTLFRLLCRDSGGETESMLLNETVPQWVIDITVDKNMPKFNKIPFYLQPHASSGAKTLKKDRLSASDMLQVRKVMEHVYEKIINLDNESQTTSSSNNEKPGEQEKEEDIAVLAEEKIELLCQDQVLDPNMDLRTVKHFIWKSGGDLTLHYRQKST
row,SMILES,IC50 [nM]
1,"CC(C)Oc1cnc(-c2ccccc2C(C)C)nc1NCC12CCC(c3ccc(C(F)(F)F)cn3)(CC1)CC2 [Example 74, 5-Isopropoxy-2-(2-isopropylphenyl)-N-((4-(5-(trifluoromethyl)pyridin-2-yl)bicyclo[2.2.2]octan-1-yl)methyl)pyrimidin-4-amine]",873
2,"COC1CC(Oc2ccc(CNc3nc(-c4ccccc4C(C)C)nc4ccoc34)cc2)C1 (stereo not shown) [Example 80, 2-(2-Isopropylphenyl)-N-(4-(3-methoxycyclobutoxy)benzyl)furo[3,2-d]pyrimidin-4-amine]",26
3,"Cc1cc(C(F)(F)F)nn1-c1ccc(CNc2nc(-c3ccccc3C(C)C)ncc2O)cc1 [Example 90, 2-(2-Isopropylphenyl)-4-((4-(5-methyl-3-(trifluoromethyl)-1H-pyrazol-1-vl)benzyl)amino)pyrimidin-5-ol]",102
4,"COc1cnc(-c2c(OC)ncnc2C2CC2)nc1NCc1ccc2c(c1)CCN(C(C)C)C2=O [Example 97, 6-(((4'-Cyclopropyl-5,6'-dimethoxy-[2,5'-bipyrimidin]-4-yl)amino)methyl)-2-isopropyl-3,4-dihydroisoquinolin-1(2H)-one]",263
5,"COc1ncnc(C2CC2)c1-c1ncc(OC(C)C)c(NCC23CCC(c4ccc(C(F)(F)F)cn4)(CC2)CC3)n1 [Example 112, 4'-Cyclopropyl-5-isopropoxy-6'-methoxy-N-((4-(5-(trifluoromethyl)pyridin-2-yl)bicyclo[2.2.2]octan-1-yl)methyl)-[2,5'-bipyrimidin]-4-amine]",266
6,"COc1ncnc(C2CC2)c1-c1nc(NCc2ccc3c(c2)CCN(C)C3=O)c2occc2n1 [Example 114, 6-(((2-(4-Cyclopropyl-6-methoxypyrimidin-5-yl)furo[3,2-d]pyrimidin-4-yl)amino)methyl)-2-methyl-3,4-dihydroisoquinolin-1(2H)-one]",648
7,"COc1ncnc(C2CC2)c1-c1nc(NCc2ccc(OC3CC(OC)C3)cc2)c2occc2n1 (stereo not shown) [Example 118, 2-(4-Cyclopropyl-6-methoxypyrimidin-5-yl)-N-(4-(3-methoxycyclobutoxy)benzyl)furo[3,2-d]pyrimidin-4-amine]",58
8,COc1cnc(-c2cccc3c2N(C)CC3)nc1NCc1ccc(-n2nc(C(F)(F)F)cc2C)cc1 [Example 146],18
9,"COc1cnc(-c2c(C)ncn2C(C)C)nc1NCc1ccc(-c2nc(C(F)(F)F)cn2C)cc1 [Example 147, 2-(1-Isopropyl-4-methyl-1H-imidazol-5-yl)-5-methoxy-N-(4-(1-methyl-4-(trifluoromethyl)-1H-imidazol-2-yl)benzyl)pyrimidin-4-amine]",364
10,"Cc1ncn(C(C)C)c1-c1nc(NCC23CCC(c4ccc(C(F)(F)F)cn4)(CC2)CC3)c2occc2n1 [Example 150, 2-(1-Isopropyl-4-methyl-1H-imidazol-5-yl)-N-((4-(5-(trifluoromethyl)pyridin-2-yl)bicyclo[2.2.2]octan-1-yl)methyl)furo[3,2-d]pyrimidin-4-amine]",431
11,"COc1cnc(-c2c(OC)cnn2C(C)C)nc1NCc1ccc(-c2ccccn2)cc1 [Example 178, 2-(1-Isopropyl-4-methoxy-1H-pyrazol-5-yl)-5-methoxy-N-(4-(pyridin-2-yl)benzyl)pyrimidin-4-amine]",110
12,"COc1cnc(-c2c(OC)cnn2C2CC2)nc1NCc1ccc(-c2ccccn2)cc1 [Example 183, 2-(1-Cyclopropyl-4-methoxy-1H-pyrazol-5-yl)-5-methoxy-N-(4-(pyridin-2-yl)benzyl)pyrimidin-4-amine]",164
13,"COc1cnc(-c2cncnc2C2CC2)nc1NCc1ccc(-c2nc(C(F)F)cn2C)cc1 [Example 195, 4'-Cyclopropyl-N-(4-(4-(difluoromethyl)-1-methyl-1H-imidazol-2-yl)benzyl)-5-methoxy-[2,5'-bipyrimidin]-4-amine]",243
14,"Cn1cc(C(F)F)nc1-c1ccc(CNc2nc(-c3cncnc3C3CC3)nc3ccoc23)cc1 [Example 197, 2-(4-Cyclopropylpyrimidin-5-yl)-N-(4-(4-(difluoromethyl)-1-methyl-1H-imidazol-2-yl)benzyl)furo[3,2-d]pyrimidin-4-amine]",133

# Continued by falling IC50, values first:
row,IC50 [nM],SMILES
1,94,"COc1cnc(-c2c(OC)cnn2C2CC2)nc1NCC1CCN(c2nc(C(F)(F)F)cn2C)CC1 [Example 184, 2-(1-Cyclopropyl-4-methoxy-1H-pyrazol-5-yl)-5-methoxy-N-((1-(1-methyl-4-(trifluoromethyl)-1H-imidazol-2-yl)piperidin-4-yl)methyl)pyrimidin-4-amine]"
2,87,"COc1cnc(-c2cncnc2C2CC2)nc1N(C)Cc1ccc(-c2nc(C(F)(F)F)cn2C)cc1 [Example 193, 4'-Cyclopropyl-5-methoxy-N-methyl-N-(4-(1-methyl-4-(trifluoromethyl)-1H-imidazol-2-yl)benzyl)-[2,5'-bipyrimidin]-4-amine]"
3,77,"COc1ncnc(C2CC2)c1-c1nc(NCc2ccc3c(c2)CCN(C(C)C)C3=O)c2occc2n1 [Example 115, 6-(((2-(4-Cyclopropyl-6-methoxypyrimidin-5-yl)furo[3,2-d]pyrimidin-4-yl)amino)methyl)-2-isopropyl-3,4-dihydroisoquinolin-1(2H)-one]"
4,75,"COc1cnc(-c2c(OC)cnn2C(C)C)nc1N(C)CC1CCN(c2ccccn2)CC1 [Example 177, 2-(1-Isopropyl-4-methoxy-1H-pyrazol-5-yl)-5-methoxy-N-methyl-N-((1-(pyridin-2-yl)piperidin-4-yl)methyl)pyrimidin-4-amine]"
5,73,"COc1cnc(-c2c(OC)ncnc2C2CC2)nc1N(Cc1ccc(-c2nc(C(F)(F)F)cn2C)cc1)C1CCOC1 (stereo not shown) [Example 140, 4'-Cyclopropyl-5,6'-dimethoxy-N-(4-(1-methyl-4-(trifluoromethyl)-1H-imidazol-2-yl)benzyl)-N-(tetrahydrofuran-3-yl)-[2,5'-bipyrimidin]-4-amine]"
6,69.2,"Cc1ncn(C(C)C)c1-c1nc(NCc2ccc(-c3nc(C(F)(F)F)cn3C)cc2)c2occc2n1 [Example 149, 2-(1-Isopropyl-4-methyl-1H-imidazol-5-yl)-N-(4-(1-methyl-4-(trifluoromethyl)-1H-imidazol-2-yl)benzyl)furo[3,2-d]pyrimidin-4-amine]"
7,68.6,"COc1cnc(-c2cccc3ccn(C)c23)nc1NCc1ccc(-n2nc(C(F)(F)F)cc2C)cc1 [Example 144, 5-Methoxy-2-(1-methyl-1H-indol-7-yl)-N-(4-(5-methyl-3-(trifluoromethyl)-1H-pyrazol-1-yl)benzyl)pyrimidin-4-amine]"
8,66,"COc1cnc(-c2c(C)noc2C(C)C)nc1N(C)CC1CCN(c2ccccn2)CC1 [Example 186, 2-(5-Isopropyl-3-methylisoxazol-4-yl)-5-methoxy-N-methyl-N-((1-(pyridin-2-yl)piperidin-4-yl)methyl)pyrimidin-4-amine]"
9,31,"COc1cnc(-c2cccc3ccn(C)c23)nc1NCc1ccc(-c2nc(C(F)(F)F)cn2C)cc1 [Example 143, 5-Methoxy-2-(1-methyl-1H-indol-7-yl)-N-(4-(1-methyl-4-(trifluoromethyl)-1H-imidazol-2-yl)benzyl)pyrimidin-4-amine]"
10,30.1,"CC(C)c1ccccc1-c1ncc(C(F)(F)F)c(NCC2CCN(c3ccccn3)CC2)n1 [Example 76, 2-(2-Isopropylphenyl)-N-((1-(pyridin-2-yl)piperidin-4-yl)methyl)-5-(trifluoromethyl)pyrimidin-4-amine]"
11,28,"CC(C)c1ccccc1-c1nc(NCc2ccc3c(c2)CCN(C)C3=O)c2occc2n1 [Example 77, 6-(((2-(2-Isopropylphenyl)furo[3,2-d]pyrimidin-4-yl)amino)methyl)-2-methyl-3,4-dihydroisoquinolin-1 (2H)-one]"
12,27,"COc1cnn(C(C)C)c1-c1nc(NCc2ccc(-c3ccccn3)cc2)c2occc2n1 [Example 181, 2-(1-Isopropyl-4-methoxy-1H-pyrazol-5-yl)-N-(4-(pyridin-2-yl)benzyl)furo[3,2-d]pyrimidin-4-amine]"
13,23.5,"COc1cnc(-c2c(C)noc2C(C)C)nc1NCC1CCN(c2nc(C(F)(F)F)cn2C)CC1 [Example 187, 2-(5-Isopropyl-3-methylisoxazol-4-yl)-5-methoxy-N-((1-(1-methyl-4-(trifluoromethyl)-1H-imidazol-2-yl)piperidin-4-yl)methyl)pyrimidin-4-amine]"
14,15,"COc1cnc(-c2c(C)noc2C(C)C)nc1NCc1ccc(-c2nc(C(F)(F)F)cn2C)cc1 [Example 188, 2-(5-Isopropyl-3-methylisoxazol-4-yl)-5-methoxy-N-(4-(1-methyl-4-(trifluoromethyl)-1H-imidazol-2-vl)benzyl)pyrimidin-4-amine]"
15,6.4,"CC(C)c1ccccc1-c1nc(NCc2ccc3c(c2)CCN(C(C)C)C3=O)c2occc2n1 [Example 78, 2-Isopropyl-6-(((2-(2-isopropylphenyl)furo[3,2-d]pyrimidin-4-yl)amino)methyl)-3,4-dihydroisoquinolin-1(2H)-one]"
16,6.2,"CC(C)c1ccccc1-c1ncc(N2CCOCC2)c(NCc2ccc(-c3nc(C(F)(F)F)cn3C)cc2)n1 [Example 87, 2-(2-Isopropylphenyl)-N-(4-(1-methyl-4-(trifluoromethyl)-1H-imidazol-2-yl)benzyl)-5-morpholinopyrimidin-4-amine]"
17,4.5,"CCOCCOc1ccc(CNc2nc(-c3ccccc3C(C)C)nc3ccoc23)cc1 [Example 79, N-(4-(2-Ethoxyethoxy)benzyl)-2-(2-isopropylphenyl)furo[3,2-d]pyrimidin-4-amine]"
